Measured values taken from US8993574B2, “Pyrrole antifungal agents” (F2G Ltd, priority 2008, dated 2015).
≈ marks a conversion by molar mass, not a printed value.

Experiments:
Assay type in all cases: cell-based
[1] = system: Aspergillus fumigatus AF293; test: MIC, RPMI medium; settings: for MIC: Aspergillus fumigatus, AF293, MIC banded into grades, read-out: MIC grade, A. fumigatus
Method: (§1) Between 1 and 5 mgs of compound were accurately weighed out into a sterile Eppendorf tube. The compound was dissolved in DMSO to give a solution containing 5 mg/mL. Tubes were stored at −20° C. until required.
(§2) On the day of testing thawed solutions were vortex mixed to ensure homogeneity. 30 μL of solution was removed and added to 570 μL of sterile water in a separate sterile Eppendorf. The thoroughly mixed solution was used to prepare a series of doubling dilutions in water, in a deep well plate. Thirteen replicate plates were prepared using a Minitrak by aspirating 20 μL from each well into eleven clear polystyrene 96 well plates.
(§3) Assays were also performed in RPMI medium for both Aspergillus spp. (strains described above) and Candida spp. (Candida albicans, Candida glabrata, Candida krusei, Candida parapsilosis and Candida tropicalis). To perform MIC tests in this medium, dilutions of compounds are prepared in microtitre plates as described above. Fungal strains to be tested are grown and harvested in an identical manner to that described above, and each organism suspension was diluted in RPMI medium, containing 2% glucose and 0.135 M MOPS buffer (pH 7.0) to 0.5-2×10^4 cfu/mL, rather than in YAG medium. 80 μL of an organism suspension was added to each well of the plate containing drug dilutions.
(§4) This produced MIC plates with a drug range 50-0.05 mg/L and organism inocula of 1−2×10^4 cfu/mL. All plates were incubated for 24-48 h at 35° C. Growth was assessed by monitoring the optical density at 485 nm for each well. The MIC of a compound is the lowest drug concentration that inhibits growth of an organism by >80% compared with a drug free control.
(§5) The following organisms were tested: Aspergillus flavus, Aspergillus fumigatus AF293 and AF210, Aspergillus niger, Aspergillus terreus AT4 and AT49, Candida albicans, Candida glabrata, Candida krusei, Candida parapsilosis and Candida tropicalis.

Aspergillus niger [2] = test: MIC, RPMI medium; settings: MIC banded into grades; for MIC: Aspergillus niger, read-out: MIC grade, A. niger
Method: as §1, §2, §3, §4, §5

Aspergillus flavus [3] = test: MIC, RPMI medium; settings: MIC banded into grades; for MIC: Aspergillus flavus, read-out: MIC grade, A. flavus
Method: as §1, §2, §3, §4, §5

[4] = system: Aspergillus fumigatus AF210; test: MIC, RPMI medium; settings: for MIC: Aspergillus fumigatus, AF210, MIC banded into grades, read-out: MIC grade, A. fumigatus 210
Method: as §1, §2, §3, §4, §5

Aspergillus terreus AT49 [5] = test: MIC, RPMI medium; settings: for MIC: Aspergillus terreus, AT49, MIC banded into grades, read-out: MIC grade, A. terreus 49
Method: as §1, §2, §3, §4, §5

Aspergillus terreus AT4 [6] = test: MIC, RPMI medium; settings: for MIC: Aspergillus terreus, AT4, MIC banded into grades, read-out: MIC grade, A. terreus
Method: as §1, §2, §3, §4, §5

[7] = system: Aspergillus fumigatus AF293; test: MIC, YAG medium; settings: 24 h at 35° C, MIC banded into grades; for MIC: Aspergillus fumigatus, read-out: MIC grade, A. fumigatus
Method: as §1, §2
(§6) Spores of Aspergillus spp. (Aspergillus fumigatus [two strains], Aspergillus terreus [two strains], Aspergillus niger and Aspergillus flavus) were harvested from cultures grown on Sabarauds agar for 5 days, and resuspended in PBS/Tween 80 to approx 1×10^7 cfu/mL. Each organism suspension was diluted in YAG medium (1% glucose, 1% ammonium chloride and 0.5% yeast extract) to 0.5−2×10^4 cfu/mL. 80 μL of an organism suspension was added to each well of the plate containing drug dilutions.
as §4, with “cfu/mL for Aspergillus spp.” for “cfu/mL.”, “24” for “24-48”, “>70%” for “>80%”, “control. MICs are recorded as mg/L. In cases where the MIC of an organism is […] mg/L the MIC is repeated using a concentration range of 0.5-0.0005 mg/L.” for “control.”
as §5

Aspergillus niger [8] = test: MIC, YAG medium; settings: 24 h at 35° C, MIC banded into grades; for MIC: Aspergillus niger, read-out: MIC grade, A. niger
Method: as §1, §2, §6
as §4, with “cfu/mL for Aspergillus spp.” for “cfu/mL.”, “24” for “24-48”, “>70%” for “>80%”, “control. MICs are recorded as mg/L. In cases where the MIC of an organism is […] mg/L the MIC is repeated using a concentration range of 0.5-0.0005 mg/L.” for “control.”
as §5

Aspergillus flavus [9] = test: MIC, YAG medium; settings: 24 h at 35° C, MIC banded into grades; for MIC: Aspergillus flavus, 24 h, read-out: MIC grade, A. flavus
Method: as §1, §2, §6
as §4, with “cfu/mL for Aspergillus spp.” for “cfu/mL.”, “24” for “24-48”, “>70%” for “>80%”, “control. MICs are recorded as mg/L. In cases where the MIC of an organism is […] mg/L the MIC is repeated using a concentration range of 0.5-0.0005 mg/L.” for “control.”
as §5

[10] = system: Aspergillus fumigatus AF210; test: MIC, YAG medium; settings: 24 h at 35° C, MIC banded into grades; for MIC: Aspergillus fumigatus, read-out: MIC grade, A. fumigatus 210
Method: as §1, §2, §6
as §4, with “cfu/mL for Aspergillus spp.” for “cfu/mL.”, “24” for “24-48”, “>70%” for “>80%”, “control. MICs are recorded as mg/L. In cases where the MIC of an organism is […] mg/L the MIC is repeated using a concentration range of 0.5-0.0005 mg/L.” for “control.”
as §5

Aspergillus terreus AT49 [11] = test: MIC, YAG medium; settings: 24 h at 35° C, MIC banded into grades; for MIC: Aspergillus terreus, read-out: MIC grade, A. terreus 49
Method: as §1, §2, §6
as §4, with “cfu/mL for Aspergillus spp.” for “cfu/mL.”, “24” for “24-48”, “>70%” for “>80%”, “control. MICs are recorded as mg/L. In cases where the MIC of an organism is […] mg/L the MIC is repeated using a concentration range of 0.5-0.0005 mg/L.” for “control.”
as §5

Aspergillus terreus AT4 [12] = test: MIC, YAG medium; settings: 24 h at 35° C, MIC banded into grades; for MIC: Aspergillus terreus, read-out: MIC grade, A. terreus
Method: as §1, §2, §6
as §4, with “cfu/mL for Aspergillus spp.” for “cfu/mL.”, “24” for “24-48”, “>70%” for “>80%”, “control. MICs are recorded as mg/L. In cases where the MIC of an organism is […] mg/L the MIC is repeated using a concentration range of 0.5-0.0005 mg/L.” for “control.”
as §5

Structure (SMILES)	MIC [1] [µg/mL]	MIC (Aspergillus niger [2]) [µg/mL]	MIC (Aspergillus flavus [3]) [µg/mL]	MIC [4] [µg/mL]	MIC (Aspergillus terreus AT49 [5]) [µg/mL]	MIC (Aspergillus terreus AT4 [6]) [µg/mL]	MIC [7] [µg/mL]	MIC (Aspergillus niger [8]) [µg/mL]	MIC (Aspergillus flavus [9]) [µg/mL]	MIC [10] [µg/mL]	MIC (Aspergillus terreus AT49 [11]) [µg/mL]	MIC (Aspergillus terreus AT4 [12]) [µg/mL]	other results
COC(=O)Cn1c(C)cc(-c2ccccc2)c1C(=O)C(=O)Nc1ccc(N2CCN(c3cc(C)cc(C)n3)CC2)cc1F [Example 111, (2-{4-[4-(4,6-Dimethyl-pyridin-2-yl)-piperazin-1-yl]-2-fluoro-phenylaminooxalyl}-5-methyl-3-phenyl-pyrrol-1-yl)-acetic acid methyl ester]													MIC grade, A. fumigatus ([1]; MIC banded into grades): 3 (A grade of 3 represents an MIC of less than 1 mg/L); MIC grade, A. niger (Aspergillus niger [2]): 3 (A grade of 3 represents an MIC of less than 1 mg/L); MIC grade, A. flavus (Aspergillus flavus [3]): 2 (A grade of 2 represents an MIC of from 1 to 10 mg/L); MIC grade, A. fumigatus 210 ([4]; MIC banded into grades): 3 (A grade of 3 represents an MIC of less than 1 mg/L); MIC grade, A. terreus 49 (Aspergillus terreus AT49 [5]; MIC banded into grades): 2 (A grade of 2 represents an MIC of from 1 to 10 mg/L); MIC grade, A. terreus (Aspergillus terreus AT4 [6]; MIC banded into grades): 3 (A grade of 3 represents an MIC of less than 1 mg/L); MIC grade, A. fumigatus [7]: 3 (A grade of 3 represents an MIC of less than 1 mg/L); MIC grade, A. niger (Aspergillus niger [8]): 3 (A grade of 3 represents an MIC of less than 1 mg/L); MIC grade, A. flavus (Aspergillus flavus [9]): 2 (A grade of 2 represents an MIC of from 1 to 10 mg/L); MIC grade, A. fumigatus 210 [10]: 3 (A grade of 3 represents an MIC of less than 1 mg/L); MIC grade, A. terreus 49 (Aspergillus terreus AT49 [11]): 3 (A grade of 3 represents an MIC of less than 1 mg/L); MIC grade, A. terreus (Aspergillus terreus AT4 [12]): 3 (A grade of 3 represents an MIC of less than 1 mg/L)
CCCNC(=O)C(=O)c1cc(-c2ccccc2)cn1CCOC [Example 121, 2-[1-(2-Methoxy-ethyl)-4-phenyl-1H-pyrrol-2-yl]-2-oxo-N-propyl-acetamide]	> 10	> 10	> 10	> 10	> 10	> 10	> 10	> 10	> 10	1 to 10 (≈ 3.18 to 31.8 µM)	1 to 10 (≈ 3.18 to 31.8 µM)	1 to 10 (≈ 3.18 to 31.8 µM)	
Cc1cc(C)nc(N2CCN(c3ccc(NC(=O)C(=O)c4c(-c5ccccc5)cc(C)n4CCO)cc3)CC2)c1 [Example 64, N-{4-[4-(4,6-Dimethyl-pyridin-2-yl)-piperazin-1-yl]-phenyl}-2-[1-(2-hydroxy-ethyl)-5-methyl-3-phenyl-1H-pyrrol-2-yl]-2-oxo-acetamide]	< 1	< 1	1 to 10 (≈ 1.86 to 18.6 µM)	< 1	< 1	1 to 10 (≈ 1.86 to 18.6 µM)	< 1	< 1	< 1	< 1	< 1	< 1	

More lines, main results first:

MIC [1] [µg/mL]	MIC (Aspergillus niger [2]) [µg/mL]	MIC (Aspergillus flavus [3]) [µg/mL]	MIC [4] [µg/mL]	MIC (Aspergillus terreus AT49 [5]) [µg/mL]	MIC (Aspergillus terreus AT4 [6]) [µg/mL]	MIC [7] [µg/mL]	MIC (Aspergillus niger [8]) [µg/mL]	MIC (Aspergillus flavus [9]) [µg/mL]	MIC [10] [µg/mL]	MIC (Aspergillus terreus AT49 [11]) [µg/mL]	MIC (Aspergillus terreus AT4 [12]) [µg/mL]	Structure (SMILES)	other results
< 1	< 1	< 1	< 1	< 1	< 1	< 1	< 1	< 1	< 1	< 1	< 1	Cc1cc(C)nc(N2CCN(c3ccc(NC(=O)C(=O)c4c(-c5ccccc5)cc5n4CCOC5)cc3)CC2)c1 [Example 7, N-{4-[4-(4,6-Dimethyl-pyridin-2-yl)-piperazin-1-yl]-phenyl}-2-oxo-2-(7-phenyl-3,4-dihydro-1H-pyrrolo[2,1-c][1,4]oxazin-6-yl)-acetamide]	
< 1	1 to 10 (≈ 1.92 to 19.2 µM)	1 to 10 (≈ 1.92 to 19.2 µM)	< 1	< 1	< 1	< 1	< 1	1 to 10 (≈ 1.92 to 19.2 µM)	< 1	1 to 10 (≈ 1.92 to 19.2 µM)	< 1	COCCn1c(C)cc(-c2ccccc2)c1C(=O)C(=O)Nc1ccc(N2CCN(CC(C)C)CC2)cc1F [Example 110, N-[2-Fluoro-4-(4-isobutyl-piperazin-1-yl)-phenyl]-2-[1-(2-methoxy-ethyl)-5-methyl-3-phenyl-1H-pyrrol-2-yl]-2-oxo-acetamide]	
